Experimental data as given in patent US12441733B2, “Substituted 2,4-dioxotetrahydropyrimidines as intermediates in the synthesis of bruton's tyrosine kinase inhibitors” (Novartis AG, priority 2018, dated 2025).

Target: T1, IKZF3-GFP (Homo sapiens, UniProt Q96SW2+Q9UKT9)
T1 construct: expressed in transfected cells; host or cells: HEK293A (Invitrogen R70507), lentiviral transduction with pLenti6-IKZF3-GFP-Ires-RFP, blasticidin selection
Experiment: IKZF3-GFP protein abundance flow cytometry assay in HEK293A cells
Format: cell-based
Conditions: HEK293A IKZF3-GFP-iresRFP cells, 24 h; for DC50: GFP signal by flow cytometry; for IKZF3 deg Amax: % protein remaining at maximum degradation
Procedure: BTK-GFP and IKZF3-GFP protein abundance flow cytometry assay in HEK293A cells:
Degradation of BTK or IKZF3 was measured in HEK293A cells (Invitrogen R70507) expressing either BTK-GFP and RFP or IKZF3-GFP and RFP from a stably integrated bicistronic BTK-GFP-iresRFP or IKZF3-GFP-iresRFP construct, respectively. Reduction of the GFP signal measured by flow cytometry served as readout for BTK or IKZF3 degradation after degrader treatment.
By analogy the bicistronic pLenti6-IKZF3-GFP-iresRFP was engineered by gateway cloning of IKZF3 from a pENTR221-IKZF3(STOP-Leu) construct into the previously described pLenti6-DEST-GFP-Ires-RFP vector using the LR Clonase kit (Invitrogen 11791-019) according to the manufacturer's manual. All vectors described have been sequenced for verification.
ii) Engineering of Stably Expressing 293A BTK-GFP-Ires-RFP and IKZF3-GFP-Ires-RFP Sensor Cells
293A BTK-GFP-Ires-RFP and IKZF3-GFP-ires-RFP sensor cells were generated by lentiviral vector transduction using the pLenti6-BTK-GFP-Ires-RFP or pLenti6-IKZF3-GFP-Ires-RFP sensor construct described before. Lentiviral particles were produced in HEK293FT cells (Invitrogen R70007) by co-transfection of 500 ng pLenti6-BTK-GFP-ires-RFP or pLenti6-IKZF3-GFP-Ires-RFP, 500 ng delta8.71 and 200 ng pVSVG diluted in 100 μl OptiMEM serum free medium (Invitrogen #11058-021) that was mixed after 5 min preincubation with 3 μl of Lipofectamine2000 (Invitrogen #11668-019) in 97 μl OptiMEM serum free medium. The mix was incubated for another 20 min at RT and then added on 1 ml of a freshly prepared suspension of HEK293FT cells in a well of a 6-well plate (concentration 1.2×10^6 cells/ml). 1 day after transfection, the medium was replaced with 1.5 ml of complete growth medium (DMEM high Glucose+10% FCS+1% L-Glutamine+1% NEAA+1% NaPyr.). 48 h post transfection supernatant containing viral transducing particles was collected and frozen at −80° C.
Two days before transduction with viral particles 1×10^5 HEK293A cells (Invitrogen R70507) were seeded in 2 ml growth medium in a well of a 6-well plate. Infection was performed with 90 μl of collected supernatant containing viral transducing particles in 1 ml medium including 8 μg/ml polybrene. 24 h post infection, stably transfected cells were selected with blasticidin at a concentration of 8 μg/ml.
Iii) Quantitative BTK-GFP and IKZF3-GFP Abundance Measurements
Stable HEK293A-BTK-GFP-iresRFP cells were maintained in complete growth medium (DMEM high Glucose+10% FCS+1% L-Glutamine+1% NEAA+1% NaPyr.) with passaging performed twice per week. On Day 0, HEK293A-BTK-GFP-iresRFP or HEK293A-IKZF3-GFP-iresRFP and HEK293A-iresRFP cells were seeded at 10,000 cells/well in a 96-well microtiter plate in 260 μl complete medium. On Day 1, cells were treated in duplicate with 10-point 1:3 dilution series of compound using the HP D300 Digital Dispenser (Tecan). DMSO concentrations were normalized across the plate to 0.1%. On Day 2, after 24 h of incubation at 37° C., treatment media was discarded, cells rinsed with 100 μl/well PBS and then detached using 40 μl trypsin/well for 5 min. Trypsin was neutralized with 100 μl/well PBS+20% FCS). Flow cytometry was performed on the samples using the BD FACS CANTO II (Becton Dickinson). Cell identification was then performed using forward (FSC) vs. side scatter (SSC) plots. […] Median GFP values for 5,000 single cells are used to determine BTK levels. Median GFP values from HEK293A-iresRFP are used as a background signal and thus defining 0% BTK signal. Median GFP values from DMSO treated HEK293A-BTK-GFP-iresRFP or HEK293A-IKZF3-GFP-iresRFP are used to define 100% BTK signal for subsequent DC50 curves (concentration at 50% BTK degradation).

T1 sequence (Q9UKT9 whole entry): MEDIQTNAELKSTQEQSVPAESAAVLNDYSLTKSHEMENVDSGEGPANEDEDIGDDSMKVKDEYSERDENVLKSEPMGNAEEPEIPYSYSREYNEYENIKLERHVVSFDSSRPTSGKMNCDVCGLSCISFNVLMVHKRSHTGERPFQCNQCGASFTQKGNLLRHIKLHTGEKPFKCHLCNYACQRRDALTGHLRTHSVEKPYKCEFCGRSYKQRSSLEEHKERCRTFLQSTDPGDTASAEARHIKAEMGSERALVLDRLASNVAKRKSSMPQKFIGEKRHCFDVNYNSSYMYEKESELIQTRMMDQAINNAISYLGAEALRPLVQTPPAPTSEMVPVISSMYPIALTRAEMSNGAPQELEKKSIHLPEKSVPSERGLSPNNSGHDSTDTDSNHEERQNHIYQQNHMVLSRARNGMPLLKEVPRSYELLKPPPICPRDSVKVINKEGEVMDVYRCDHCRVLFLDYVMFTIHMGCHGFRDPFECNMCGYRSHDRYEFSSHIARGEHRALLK
T1 sequence (Q96SW2 whole entry): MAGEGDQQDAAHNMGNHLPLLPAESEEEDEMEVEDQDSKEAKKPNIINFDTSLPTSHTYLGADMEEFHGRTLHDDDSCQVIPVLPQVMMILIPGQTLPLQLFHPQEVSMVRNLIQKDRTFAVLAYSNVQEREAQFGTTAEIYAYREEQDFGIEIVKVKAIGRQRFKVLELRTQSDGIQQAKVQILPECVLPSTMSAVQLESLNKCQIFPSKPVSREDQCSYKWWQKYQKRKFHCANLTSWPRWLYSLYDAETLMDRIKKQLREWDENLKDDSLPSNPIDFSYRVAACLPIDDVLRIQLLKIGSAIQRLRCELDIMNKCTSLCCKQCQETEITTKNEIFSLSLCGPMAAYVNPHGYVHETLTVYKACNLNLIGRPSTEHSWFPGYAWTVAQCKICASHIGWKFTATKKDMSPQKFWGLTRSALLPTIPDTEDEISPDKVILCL
T1 sequence (Q16531 whole entry partner): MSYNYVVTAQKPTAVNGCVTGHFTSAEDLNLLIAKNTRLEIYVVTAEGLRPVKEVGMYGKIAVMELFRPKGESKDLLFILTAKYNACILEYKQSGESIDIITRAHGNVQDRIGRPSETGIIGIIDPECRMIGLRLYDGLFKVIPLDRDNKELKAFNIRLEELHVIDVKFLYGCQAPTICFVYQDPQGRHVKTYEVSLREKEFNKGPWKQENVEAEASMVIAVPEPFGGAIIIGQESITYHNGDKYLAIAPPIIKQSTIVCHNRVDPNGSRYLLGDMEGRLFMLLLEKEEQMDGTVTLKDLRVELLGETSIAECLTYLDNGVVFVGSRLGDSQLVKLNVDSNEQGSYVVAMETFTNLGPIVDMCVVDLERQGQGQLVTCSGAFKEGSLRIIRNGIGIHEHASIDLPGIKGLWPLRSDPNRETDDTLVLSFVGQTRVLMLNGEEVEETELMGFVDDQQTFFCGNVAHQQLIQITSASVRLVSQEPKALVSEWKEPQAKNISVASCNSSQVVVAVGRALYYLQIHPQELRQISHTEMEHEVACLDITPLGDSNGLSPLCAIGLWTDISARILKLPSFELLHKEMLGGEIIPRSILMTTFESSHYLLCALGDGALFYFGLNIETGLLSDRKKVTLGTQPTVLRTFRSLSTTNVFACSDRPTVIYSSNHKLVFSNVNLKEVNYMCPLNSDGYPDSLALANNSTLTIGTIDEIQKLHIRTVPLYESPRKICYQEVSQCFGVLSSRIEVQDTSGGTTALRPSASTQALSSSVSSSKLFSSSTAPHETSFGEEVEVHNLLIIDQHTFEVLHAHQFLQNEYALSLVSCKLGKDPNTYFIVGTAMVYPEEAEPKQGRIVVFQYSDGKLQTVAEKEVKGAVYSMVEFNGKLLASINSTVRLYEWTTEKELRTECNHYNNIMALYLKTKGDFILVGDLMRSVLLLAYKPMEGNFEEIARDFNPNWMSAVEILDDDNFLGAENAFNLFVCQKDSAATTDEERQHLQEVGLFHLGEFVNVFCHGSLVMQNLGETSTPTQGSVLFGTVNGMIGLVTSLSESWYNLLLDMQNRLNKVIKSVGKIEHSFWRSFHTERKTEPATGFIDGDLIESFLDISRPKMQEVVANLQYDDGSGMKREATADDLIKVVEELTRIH

Row | Compound | DC50 [µM] | IKZF3 deg Amax [%]
1 | Cc1cc(F)c(C(=O)NCCCCCNCc2ccc(-c3cc4c(-c5cc(F)cc(NC(=O)c6ccc(C(C)(C)O)cc6F)c5C)ncnc4[nH]3)cc2)cc1N1CCC(=O)NC1=O [Compound 29, 5-(2,4-Dioxotetrahydropyrimidin-1(2H)-yl)-2-fluoro-N—(S-((4-(4-(5-fluoro-3-(2-fluoro-4-(2-hydroxypropan-2-yl)benzamido)-2-methylphenyl)-7H-pyrrolo[2,3-d]pyrimidin-6-yl)benzyl)amino)pentyl)-4-methylbenzamide] | > 3.3 | 98.6
2 | COc1ccc(C(=O)N2CCN(C(=O)N3CCN(Cc4ccc(-c5cc6c(-c7cc(F)cc(NC(=O)c8ccc(C(C)(C)O)cc8F)c7C)ncnc6[nH]5)cc4)CC3)CC2)cc1N1CCC(=O)NC1=O [Compound 22, N-(3-(6-(4-((4-(4-(3-(2,4-Dioxotetrahydropyrimidin-1(2H)-yl)-4-methoxybenzoyl)piperazine-1-carbonyl)piperazin-1-yl)methyl)phenyl)-7H-pyrrolo[2,3-d]pyrimidin-4-yl)-5-fluoro-2-methylphenyl)-2-fluoro-4-(2-hydroxypropan-2-yl)benzamide] | > 10 | 99.7
3 | COc1ccc(C(=O)N2CCC(OC3CCN(CCc4ccc(-c5cc6c(-c7cc(F)cc(NC(=O)c8ccc(C(C)(C)O)cc8F)c7C)ncnc6[nH]5)cc4)CC3)CC2)cc1N1CCC(=O)NC1=O [Compound 34, N-(3-(6-(4-(2-(4-((1-(3-(2,4-Dioxotetrahydropyrimidin-1(2H)-yl)-4-methoxybenzoyl)piperidin-4-yl)oxyl)piperidin-1-yl)ethyl)phenyl)-7H-pyrrolo[2,3-d]pyrimidin-4-yl)-5-fluoro-2-methylphenyl)-2-fluoro-4-(2-hydroxypropan-2-yl)benzamide] | > 10 | 94.7
4 | COc1ccc(C(=O)N2CCC3(CCN(Cc4ccc(-c5cc6c(-c7cc(F)cc(NC(=O)c8ccc(C(C)(C)O)cc8F)c7C)ncnc6[nH]5)cc4)CC3)CC2)cc1N1CCC(=O)NC1=O [Compound 9, N-(3-(6-(4-((9-(3-(2,4-Dioxotetrahydropyrimidin-1(2H)-yl)-4-methoxybenzoyl)-3,9-diazaspiro[5.5]undecan-3-yl)methyl)phenyl)-7H-pyrrolo[2.3-d]pyrimidin-4-yl)-5-fluoro-2-methylphenyl)-2-fluoro-4-(2-hydroxypropan-2-yl)benzamide] | > 7.8 | 99.1
5 | Cc1c(NC(=O)c2ccc(C(C)(C)O)cc2F)cc(F)cc1-c1ncnc2[nH]c(-c3ccc(COC4CCN(CCC5CCN(C(=O)c6ccc(F)c(N7CCC(=O)NC7=O)c6)CC5)CC4)cc3)cc12 [Compound 6, N-(3-(6-(4-(((1-(2(1-(3-(2,4-dioxotetrahydropyrimidin-1(2H)-yl)-4-fluorobenzoyl)piperidin-4-yl)ethyl)piperidin-4-yl)oxyl)methyl)phenyl)-7H-pyrrolo[2,3-d]pyrimidin-4-yl)-5-fluoro-2-methylphenyl)-2-fluoro-4-(2-hydroxypropan-2-yl)benzamide] | > 10 | 100.8

Continued, values first:

Row | DC50 [µM] | IKZF3 deg Amax [%] | Compound
6 | > 1.1 | 100.4 | Cc1c(NC(=O)c2ccc(C(C)(C)O)cc2F)cc(F)cc1-c1ncnc2[nH]c(-c3ccc(CCN4CCC5(CC4)CCN(C(=O)c4cccc(N6CCC(=O)NC6=O)c4)CC5)cc3)cc12 [Compound 12, N-(3-(6-(4-(2-(9-(3-(2,4-Dioxotetrahydropyrimidin-1(2H)-yl)benzoyl)-3,9-diazaspiro[5,5]undecan-3-yl)ethyl)phenyl)-7H-pyrrolo[2,3-d]pyrimidin-4-yl)-5-fluoro-2-methylphenyl)-2-fluoro-4-(2-hydroxypropan-2-yl)benzamide]
7 | > 3.3 | 99.7 | COc1ccc(C(=O)NCCN2CCC3(CC2)CCN(Cc2ccc(-c4cc5c(-c6cc(F)cc(NC(=O)c7ccc(C(C)(C)O)cc7F)c6C)ncnc5[nH]4)cc2)CC3)cc1N1CCC(=O)NC1=O [Compound 44, N-(3-(6-(4-((9-(2-(3-(2,4-dioxotetrahydropyrimidin-1(2H)-yl)-4-methoxybenzamido)ethyl)-3,9-diazaspiro[5.5]undecan-3-yl)methyl)phenyl)-7H-pyrrolo[2,3-d]pyrimidin-4-yl)-5-fluoro-2-methylphenyl)-2-fluoro-4-(2-hydroxypropan-2-yl)benzamide]
8 | > 1.1 | 100.2 | Cc1c(NC(=O)c2ccc(C(C)(C)O)cc2F)cc(F)cc1-c1ncnc2[nH]c(-c3ccc(CN4CCC5(CC4)CCN(C(=O)c4ccc(F)c(N6CCC(=O)NC6=O)c4)CC5)cc3)cc12 [Compound 14, N-(3-(6-(4-((9-(3-(2,4-Dioxotetrahydropyrimidin-1(2H)-yl)-4-fluorobenzoyl)-3,9-diazaspiro[5.5]undecan-3-yl)methyl)phenyl)-7H-pyrrolo[2.3-d]pyrimidin-4-yl)-5-fluoro-2-methylphenyl)-2-fluoro-4-(2-hydroxypropan-2-yl)benzamide]
9 | > 1.1 | 101.3 | CCOc1ccc(C(=O)N2CCC3(CCN(Cc4ccc(-c5cc6c(-c7cc(F)cc(NC(=O)c8ccc(C(C)(C)O)cc8F)c7C)ncnc6[nH]5)cc4)CC3)CC2)cc1N1CCC(=O)NC1=O [Compound 4, N-(3-(6-(4-((9-(3-(2,4-Dioxotetrahydropyrimidin-1(2H)-yl)-4-ethoxybenzoyl)-3,9-diazaspiro[5.5]undecan-3-yl)methyl)phenyl)-7H-pyrrolo[2,3-d]pyrimidin-4-yl)-5-fluoro-2-methylphenyl)-2-fluoro-4-(2-hydroxypropan-2-yl)benzamide]
10 | > 1.1 | 102.2 | Cc1ccc(C(=O)N2CCC3(CCN(Cc4ccc(-c5cc6c(-c7cc(F)cc(NC(=O)c8ccc(C(C)(C)O)cc8F)c7C)ncnc6[nH]5)cc4)CC3)CC2)cc1N1CCC(=O)NC1=O [Compound 27, N-(3-(6-(4-((9-(3-(2,4-Dioxotetrahydropyrimidin-1(2H)-yl)-4-methylbenzoyl)-3,9-diazaspiro[5.5]undecan-3-yl)methyl)phenyl)-7H-pyrrolo[2,3-d]pyrimidin-4-yl)-5-fluoro-2-methylphenyl)-2-fluoro-4-(2-hydroxypropan-2-yl)benzamide]
11 | > 1.1 | 93.3 | COc1ccc(C(=O)N2CCC3(CC2)CCN(C(C)(C)Cc2ccc(-c4cc5c(-c6cc(F)cc(NC(=O)c7ccc(C(C)(C)O)cc7F)c6C)ncnc5[nH]4)cc2)CC3)cc1N1CCC(=O)NC1=O [Compound 20, N-(3-(6-(4-(2-(9-(3-(2,4-Dioxotetrahydropyrimidin-1(2H)-yl)-4-methoxybenzoyl)-3,9-diazaspiro[5.5]undecan-3-yl)-2-methylpropyl)phenyl)-7H-pyrrolo[2,3-d]pyrimidin-4-yl)-5-fluoro-2-methylphenyl)-2-fluoro-4-(2-hydroxypropan-2-yl)benzamide]
